# Source: ChEMBL document CHEMBL1148763 (J Med Chem, 2007)
# Target: T1, Dihydrofolate reductase (Bacillus anthracis, UniProt Q81R22)
# T1 sequence (Q81R22 whole entry): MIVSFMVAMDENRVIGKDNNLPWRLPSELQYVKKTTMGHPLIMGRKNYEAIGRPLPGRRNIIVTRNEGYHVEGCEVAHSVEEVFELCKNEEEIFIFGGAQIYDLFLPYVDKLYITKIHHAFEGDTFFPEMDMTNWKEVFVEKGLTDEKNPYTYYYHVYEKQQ
# Test: Inhibition of Bacillus anthracis DHFR
smiles,measurement,value
CN(c1ccc(C(=O)NC(CCC(=O)O)C(=O)O)cc1)c1cnc2nc(N)nc(N)c2n1 (stereo unspecified),IC50,15 nM
